According to patent US20230024537A1, “Oral Delivery Compositions for Obesity Management” (BOARD OF REGENTS, THE UNIVERSITY OF TEXAS SYSTEM, priority 2021, published 2023):

Experiments:
[1] = Beta glucan gel mediated oral delivery of nutraceuticals (absorption, pharmacokinetics)
Excerpt: Beta-glucan compositions can be used to delivery other nutrients or therapeutic molecule via oral delivery.

[2] = system: high fat diet induced rat model; assay: Oral delivery of anti-leptin antibody or leptin protein in high fat diet induced rat model; format: in vivo
Method: The inventors have developed an oral antibody or protein delivery platform and investigated feasibility using an anti-leptin antibody. […] The oral delivery vehicle facilitated enhancement of intestinal penetration of the antibody as well as protect the antibody from being damaged within the stomach in presence of acidic gastric juice. […] An oral dose of 5-10 μg leptin protein resulted 10-20% body weight reduction compared to the untreated high fat diet rat. […] Treated groups show less cholesterol contents in their blood which is within the normal range in opposed to the untreated animal that are observed with high cholesterol content.

high fat diet rat = assay: Rat animal model, high fat diet with CAGE-Leptin or BG-leptin treatment (body weight, food consumption); format: in vivo
Method: Materials and Methods. Rat Animal Model. Rats are fed normal diet for 5 weeks, both male and female, body weight and food consumption is measured. Animals are fed a high fat diet for 5 weeks, body weight and food consumption is measured. Animals are fed high fat diet with CAGE-Leptin treatment for 5 weeks, body weight and food consumption is measured. Animals are fed high fat diet with BG-leptin treatment for 5 weeks, body weight and food consumption is measured.
Four groups of male were getting high fat diet for 2 weeks and then we start administer with cage, cage-leptin ab and leptin ab treatments (FIG. 3).

O=C(O)CCCCC1CCSS1 (racemic) [DL-thioctic acid]
enhancement of pharmacokinetics ([1]; Beta glucan mediated oral delivery, compared with free oral delivery, thioctic acid tested in rat): 10-20 folds

CC/C=C\C/C=C\C/C=C\C/C=C\C/C=C\C/C=C\CCC(=O)O [Docosahexaenoic acid, docosahexaenoic acid]
enhancement of pharmacokinetics ([1]; rat, in vivo, po): 10 folds

O=S(=O)([O-])[O-].[Fe+2] [iron sulfate]
constipation problem associated with oral delivery ([1]; enhanced absorption by beta glucan): mitigation of constipation problem | absorption enhanced by Beta glucan ([1]; with Beta glucan, given orally): 60%

leptin protein: Leptin protein (GenBank NP-000221), protein hormone of approx. 16 kDa formed by 146 amino acids
body weight reduction compared to untreated high fat diet rat ([2]; oral dose of 5-10 μg): 10-20% | production of anti leptin antibody ([2]; oral leptin protein): results in production anti leptin antibody | fat content in body ([2]; treated high fat diet rat): significantly less fat content | food consumption, male rat (high fat diet rat; male rats on high fat diet, versus high fat and regular diet control groups, FIG. 4 and FIG. 5): lower amount of food | body weight gain, male rat (high fat diet rat; male rats, FIG. 2): lower than regular and high fat diet male control group

vitamin B12
enhancement of pharmacokinetics ([1]; rat, in vivo, po): 15-20 folds
